US20150164762A1, “USE OF ETHANOLAMINE PHOSPHATE” (priority 2012, published 2015)

Tested on: BEAS-2B
Assay: Comprehensive gene expression analysis with Whole Human Genome DNA microarray after EP treatment
Format: cell-based
Protocol: Cells of the established normal human airway epithelial cell line BEAS-2B were used in the experiment. These cells were expansively cultured in 10% FBS RPMI-1640, and seeded at a density of 1×10^5/cm^2 on a 24-well plate. After 24 hours 0.1% FBS RPMI-1640 was substituted, and EP was administered to a final concentration of 0 or 1 mM (n=4). After 24 hours, the cells were used as the DNA microarray samples. RNA was extracted using a QIAGEN RNeasy Mini Kit. The DNA microarray test was performed using a Whole Human Genome DNA microarray 4×44K (Agilent), and the necessary labeling reagents and the like for the DNA microarray test were all from Agilent. The DNA microarray test data were analyzed statistically with GeneSpring (Agilent) dedicated analysis software, and gene function analysis (Gene Ontology (GO) analysis) was performed based on differential expression. The purpose of the GO analysis is to determine stochastically the degree to which gene sets with statistically significant differential expression correspond to known functional classification gene sets. […] The p-value is calculated according to the following formula.

[1] = probe A_23_P1361, NM_002860, EP vs control
[2] = probe A_23_P5392, 1 mM EP, 24 h
[3] = probe A_23_P8961, NM_000880, EP vs control
[4] = probe A_23_P15247, 1 mM EP, 24 h
[5] = probe A_23_P16523, NM_004864, EP vs control
[6] = probe A_23_P21134, 1 mM EP, 24 h
[7] = probe A_23_P23960, 1 mM EP, 24 h
[8] = probe A_23_P25354, 1 mM EP, 24 h
[9] = probe A_23_P28625, 1 mM EP, 24 h

NCCOP(=O)(O)O [EP, Ethanolamine phosphate]
R*: Ratio to control (P2RX7, probe A_23_P25354): 0.561 times | log2 [ratio] (P2RX7, probe A_23_P25354): −0.834 | R*: Ratio to control (P2RX7, probe A_24_P319113): 0.586 times | log2 [ratio] (P2RX7, probe A_24_P319113): −0.772 | R*: Ratio to control (PERP, probe A_23_P214950): 0.521 times | log2 [ratio] (PERP, probe A_23_P214950): −0.941 | R*: Ratio to control (PHLDA3, probe A_23_P62959): 0.271 times | log2 [ratio] (PHLDA3, probe A_23_P62959): −1.884 | R*: Ratio to control (PLK1, probe A_23_P118174): 2.447 times | log2 [ratio] (PLK1, probe A_23_P118174): 1.291 | R*: Ratio to control (PLK1, probe A_24_P313504): 1.939 times | log2 [ratio] (PLK1, probe A_24_P313504): 0.955 | R*: Ratio to control (PMAIP1, probe A_23_P207999): 0.344 times | log2 [ratio] (PMAIP1, probe A_23_P207999): −1.540 | R*: Ratio to control (PML, probe A_23_P358944): 0.586 times | log2 [ratio] (PML, probe A_23_P358944): −0.770 | R*: Ratio to control (PPAP2B, probe A_23_P201808): 1.919 times | log2 [ratio] (PPAP2B, probe A_23_P201808): 0.941 | R*: Ratio to control (ROBO4, probe A_23_P104881): 1.785 times | log2 [ratio] (ROBO4, probe A_23_P104881): 0.836 | R*: Ratio to control (ROBO4, probe A_23_P344421): 1.633 times | log2 [ratio] (ROBO4, probe A_23_P344421): 0.707 | R*: Ratio to control (RTN4, probe A_23_P56933): 1.510 times | log2 [ratio] (RTN4, probe A_23_P56933): 0.594 | R*: Ratio to control (SEMA4D, probe A_24_P261169): 0.558 times | log2 [ratio] (SEMA4D, probe A_24_P261169): −0.842 | R*: Ratio to control (SEPT4, probe A_23_P207003): 0.503 times | log2 [ratio] (SEPT4, probe A_23_P207003): −0.990 | R*: Ratio to control (SKP2, probe A_23_P156310): 1.531 times | log2 [ratio] (SKP2, probe A_23_P156310): 0.615 | R*: Ratio to control (SOX7, probe A_23_P169738): 0.362 times | log2 [ratio] (SOX7, probe A_23_P169738): −1.464 | R*: Ratio to control (SOX7, probe A_23_P306987): 0.338 times | log2 [ratio] (SOX7, probe A_23_P306987): −1.566 | R*: Ratio to control (SOX7, probe A_24_P226782): 0.607 times | log2 [ratio] (SOX7, probe A_24_P226782): −0.720 | R*: Ratio to control (SST, probe A_23_P252817): 0.666 times | log2 [ratio] (SST, probe A_23_P252817): −0.587 | R*: Ratio to control (TACSTD2, probe A_23_P149529): 1.507 times | log2 [ratio] (TACSTD2, probe A_23_P149529): 0.591 | R*: Ratio to control (TGFBR2, probe A_23_P211957): 1.634 times | log2 [ratio] (TGFBR2, probe A_23_P211957): 0.708 | R*: Ratio to control (TGFBR2, probe A_23_P337242): 1.630 times | log2 [ratio] (TGFBR2, probe A_23_P337242): 0.705 | R*: Ratio to control (TNFRSF17, probe A_23_P37736): 2.525 times | log2 [ratio] (TNFRSF17, probe A_23_P37736): 1.336 | R*: Ratio to control (VEGFC, probe A_23_P167096): 1.637 times | log2 [ratio] (VEGFC, probe A_23_P167096): 0.711 | R*: Ratio to control (WARS2, probe A_23_P74380): 1.594 times | log2 [ratio] (WARS2, probe A_23_P74380): 0.673 | R*: Ratio to control (WDR12, probe A_23_P28625): 1.676 times | log2 [ratio] (WDR12, probe A_23_P28625): 0.745 | R*: Ratio to control (ZFPM2, probe A_23_P168909): 1.678 times | log2 [ratio] (ZFPM2, probe A_23_P168909): 0.746 | ALDH18A1 gene expression, R* ratio to control [1]: 1.460 times | ALDH18A1 gene expression, log2 [ratio] [1]: 0.546 | TP53I3 expression R*: Ratio to control [2]: 0.423 times | TP53I3 expression log2 [ratio] [2]: −1.241 | IL7 gene expression, R* ratio to control [3]: 0.103 times | IL7 gene expression, log2 [ratio] [3]: −3.273 | C16orf5 expression R*: Ratio to control [4]: 0.519 times | C16orf5 expression log2 [ratio] [4]: −0.947 | GDF15 gene expression, R* ratio to control [5]: 0.104 times | GDF15 gene expression, log2 [ratio] [5]: −3.265 | DDIT3 expression R*: Ratio to control [6]: 0.210 times | DDIT3 expression log2 [ratio] [6]: −2.249 | BLOC1S2 expression R*: Ratio to control [7]: 0.398 times | BLOC1S2 expression log2 [ratio] [7]: −1.336 | P2RX7 expression R: Ratio to control [8]: 0.661 times | P2RX7 expression log2 [ratio] [8]: −0.834 | WDR12 expression R*: Ratio to control [9]: 1.676 times | WDR12 expression log2 [ratio] [9]: 0.745 | BDH1 gene expression, R* ratio to control (probe A_23_P29754, NM_203314, EP vs control): 1.462 times
